{
  "source": "patent US9388147B2",
  "about": "(Receptos, Inc., priority 2009, dated 2016)",
  "biological_target": "S1P1/EDG1 (Homo sapiens, UniProt P21453)",
  "sequence (P21453 whole entry)": "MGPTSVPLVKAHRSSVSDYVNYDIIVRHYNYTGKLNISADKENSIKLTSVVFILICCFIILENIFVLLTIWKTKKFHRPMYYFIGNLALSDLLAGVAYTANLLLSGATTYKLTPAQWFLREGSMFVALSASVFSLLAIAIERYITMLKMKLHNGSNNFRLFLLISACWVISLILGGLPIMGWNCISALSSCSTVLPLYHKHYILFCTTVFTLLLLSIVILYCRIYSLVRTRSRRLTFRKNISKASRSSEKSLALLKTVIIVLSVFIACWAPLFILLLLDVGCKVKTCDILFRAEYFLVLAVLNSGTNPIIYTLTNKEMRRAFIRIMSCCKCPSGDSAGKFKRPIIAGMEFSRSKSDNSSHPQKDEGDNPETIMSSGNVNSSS",
  "assay": "S1P1 CRE-bla CHOK1 reporter assay, inhibition of Forskolin induced cAMP",
  "format": "cell-based",
  "conditions": "agonist activity range, S1P1 CRE-bla CHOK1, 2 μM Forskolin; read-out: S1P1 ACTIVITY",
  "outline": "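Read-out is a FRET β-lactamase substrate (2 h, room temperature) after 4 h, 37 °C compound treatment under 2 μM Forskolin in stable S1P1-transfected CRE-bla CHO-K1 cells. Ten-point curves; non-linear regression gives EC50 for inhibition of Forskolin-stimulated cAMP.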",
  "data": [
    {"smiles": "CC(C)Oc1ccc(-c2nc(-c3cccc4c3CC[C@H]4N3CCOC3=O)no2)cc1C#N", "note": "[Compound 154, (R)-2-isopropoxy-5-(3-(1-(2-oxooxazolidin-3-yl)-2,3-dihydro-1H-inden-4-yl)-1,2,4-oxadiazol-5-yl)benzonitrile]", "values": [
      {"measurement": "EC50", "result": "50 to 500", "unit": "pM"}
    ]},
    {"smiles": "CC(C)Oc1ccc(-c2nc(-c3cccc4c3CC[C@H]4NS(=O)(=O)C3CC3)no2)cc1C#N", "note": "[Compound 166]", "values": [
      {"measurement": "EC50", "result": "50 to 500", "unit": "pM"}
    ]},
    {"smiles": "CC(C)Oc1ccc(-c2nc(-c3cccc4c3CC[C@H]4O)no2)cc1C#N", "note": "[Compound 5, (R)-5-(3-(1-hydroxy-2,3-dihydro-1H-inden-4-yl)-1,2,4-oxadiazol-5-yl)-2-isopropoxybenzonitrile]", "values": [
      {"measurement": "EC50", "result": "< 50", "unit": "pM"}
    ]},
    {"smiles": "COCCNC1CCc2c(-c3noc(-c4ccc(OC(C)C)c(C#N)c4)n3)cccc21", "note": "(stereo in doubt) [Compound 88]", "values": [
      {"measurement": "EC50", "result": "500 to 5000", "unit": "pM"}
    ]},
    {"smiles": "CC(C)Oc1ccc(-c2nc(-c3cccc4c3CC[C@@H]4NCCF)no2)cc1C#N", "note": "[Compound 142]", "values": [
      {"measurement": "EC50", "result": "50 to 500", "unit": "pM"}
    ]},
    {"smiles": "CNC(=O)CS(=O)(=O)N[C@H]1CCc2c(-c3noc(-c4ccc(OC(C)C)c(C#N)c4)n3)cccc21", "note": "[Compound 198]", "values": [
      {"measurement": "EC50", "result": "50 to 500", "unit": "pM"}
    ]},
    {"smiles": "CC(C)Oc1ccc(-c2nc(-c3cccc4c3CCC4NCCN3CCCC3)no2)cc1C#N", "note": "(racemic) [Compound 26]", "values": [
      {"measurement": "EC50", "result": "500 to 5000", "unit": "pM"}
    ]},
    {"smiles": "CCOC(=O)N[C@H]1CCc2c(-c3noc(-c4ccc(OC(C)C)c(C#N)c4)n3)cccc21", "note": "[Compound 152]", "values": [
      {"measurement": "EC50", "result": "500 to 5000", "unit": "pM"}
    ]}
  ]
}
